These results are taken from ChEMBL document CHEMBL1141670, “QSAR analysis of 1,3-diaryl-4,5,6,7-tetrahydro-2H-isoindole derivatives as selective COX-2 inhibitors” (Eur J Med Chem, 2008).

For this assay, the target named is T1, Prostaglandin G/H synthase 2 (Mus musculus, UniProt Q05769).
T1 sequence (Q05769 whole entry): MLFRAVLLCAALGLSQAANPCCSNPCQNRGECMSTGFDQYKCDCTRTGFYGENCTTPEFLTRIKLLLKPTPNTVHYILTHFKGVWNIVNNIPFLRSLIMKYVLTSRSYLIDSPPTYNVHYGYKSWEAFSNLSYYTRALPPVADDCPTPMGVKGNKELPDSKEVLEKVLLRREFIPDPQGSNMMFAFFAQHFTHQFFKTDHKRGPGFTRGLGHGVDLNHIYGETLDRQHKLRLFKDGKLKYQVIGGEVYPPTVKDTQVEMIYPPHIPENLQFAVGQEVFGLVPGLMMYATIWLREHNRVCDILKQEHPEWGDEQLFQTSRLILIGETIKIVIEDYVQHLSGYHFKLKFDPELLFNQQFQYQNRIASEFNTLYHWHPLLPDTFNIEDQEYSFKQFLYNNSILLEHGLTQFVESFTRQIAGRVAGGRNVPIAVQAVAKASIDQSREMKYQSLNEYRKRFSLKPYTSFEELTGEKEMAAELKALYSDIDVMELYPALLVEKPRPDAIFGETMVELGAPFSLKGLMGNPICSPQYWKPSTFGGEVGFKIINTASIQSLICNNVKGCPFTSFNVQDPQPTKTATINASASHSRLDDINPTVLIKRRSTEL
Briefly: Inhibition of mouse macrophage COX2.

As for `Cc1ccc(-c2[nH]c(-c3ccc(C)cc3)c3c2CCCC3)cc1`, the concentration for half-maximal inhibition (IC50) is 16.7 nM.
The result for `CS(=O)(=O)c1ccc(-c2[nH]c(-c3ccc(S(C)(=O)=O)cc3)c3c2C2CCC3C2)cc1` reads 10000 nM.
Consider `CC1=C(C)Cc2c(c(-c3ccccc3)n(C)c2-c2ccccc2)C1`, for which the midpoint of inhibition, the IC50, lay at 1000 nM.

The term IC50 denotes the midpoint of a concentration-inhibition curve.
